Measurements taken from US6110949A, “N-(substituted glycyl)-4-cyanothiazolidines, pharmaceutical compositions containing them and their use in inhibiting dipeptidyl peptidase-IV” (Novartis AG, priority 1999, dated 2000).
Structures can show the parent of a compound that is named as a salt.

Legend:
Assay type in all cases: biochemical
[1] = target: T1, human plasma DPP-IV (Homo sapiens, UniProt P27487); experiment: Inhibition of DPP-IV activity in human plasma; conditions: substrate H-Glycine-Proline-AMC, pH 7.8, room temperature, 20 min
T1 construct: from tissue; host or cells: human plasma
Procedure: (§1) 192-197 (1992). Briefly, five μl of plasma are added to 96-well flat-bottom mictotiter plates (Falcon), followed by the addition of 5 μl of 80 mM MgCI2 in incubation buffer (25 mM HEPES, 140 mM NaCl, 1% RIA-grade BSA, pH 7.8). After a 5 min. incubation at room temperature, the reaction is initiated by the addition of 10 μl of incubation buffer containing 0.1 mM substrate (H-Glycine-Proline-AMC; AMC is 7-amino-4-methylcoumarin). The plates are covered with aluminum foil (or kept in the dark) and incubated at room temperature for 20 min. After the 20 min. reaction, fluorescence is measured using a CytoFluor 2350 fluorimeter (Excitation 380 nm Emission 460 nm; sensitivity setting 4). Test compounds are typically added as 2 μl additions and the assay buffer volume is reduced to 13 μl. A fluorescence-concentration curve of free AMC is generated using 0-50 μM solutions of AMC in assay buffer. The curve generated is linear and is used for interpolation of substrate consumption (catalytic activity in nmoles substrate cleaved/min). As with the previous assay, the potency of the test compounds as DPP-IV inhibitors, expressed as IC50, is calculated from 8-point, dose-response curves using a 4 parameter logistic function.

[2] = target: T2, rat plasma DPP-IV (Rattus norvegicus, UniProt P14740); experiment: Inhibition of DPP-IV activity in rat plasma; conditions: substrate H-Glycine-Proline-AMC, pH 7.8, room temperature, 20 min
T2 construct: from tissue; host or cells: rat plasma
Procedure: as §1

[3] = target: T3, DPP-IV (Caco-2 cell extract) (Homo sapiens, UniProt P27487); experiment: Caco-2 DPP-IV Assay (inhibition of DPP-IV activity from human colonic carcinoma cell extracts); conditions: substrate H-Alanine-Proline-pNA, pH 7.4, room temperature, 10 minutes
T3 construct: adding 20 μg solubilized Caco-2 protein; endogenous in cells; host or cells: Caco-2 (ATCC HTB 37), differentiated to induce DPP-IV expression; nonidet-P40 extract
Text: As indicated above, all of the compounds of formula I, and their corresponding pharmaceutically acceptable acid addition salts, are useful in inhibiting DPP-IV. […] The human colonic carcinoma cell line Caco-2 was obtained from the American Type Culture Collection (ATCC HTB 37). Differentiation of the cells to induce DPP-IV expression was accomplished as described by Reisher, et al. in an article entitled "Increased expression of . . . intestinal cell line Caco-2" in Proc. Natl. Acad. Sci., Vol. 90, pgs. 5757-5761 (1993). Cell extract is prepared from cells solubilized in 10 mM Tris-HCl, 0.15 M NaCl, 0.04 t.i.u. aprotinin, 0.5% nonidet-P40, pH 8.0, which is centrifuged at 35,000 g for 30 min. at 4° C. to remove cell debris. The assay is conducted by adding 20 μg solubilized Caco-2 protein, diluted to a final volume of 125 μl in assay buffer (25 mM Tris-HCl pH 7.4, 140 mM NaCl, 10 mM KCl, 1% bovine serum albumin) to microtiter plate wells. The reaction is initiated by adding 25 μl of 1 mM substrate (H-Alanine-Proline-pNA; pNA is p-nitroaniline). The reaction is run at room temperature for 10 minutes after which time a 19 μl volume of 25% glacial acetic acid is added to stop the reaction. Test compounds are typically added as 30 μl additions and the assay buffer volume is reduced to 95 μl. A standard curve of free p-nitroaniline is generated using 0-500 μM solutions of free pNA in assay buffer. The curve generated is linear and is used for interpolation of substrate consumption (catalytic activity in nmoles substrate cleaved /min). The endpoint is determined by measuring absorbance at 405 nm in a Molecular Devices UV Max microtiter plate reader. The potency of the test compounds as DPP-IV inhibitors, expressed as IC50, is calculated from 8-point, dose-response curves using a 4-parameter logistic function.

T1 sequence (P27487 39-766 limits assumed): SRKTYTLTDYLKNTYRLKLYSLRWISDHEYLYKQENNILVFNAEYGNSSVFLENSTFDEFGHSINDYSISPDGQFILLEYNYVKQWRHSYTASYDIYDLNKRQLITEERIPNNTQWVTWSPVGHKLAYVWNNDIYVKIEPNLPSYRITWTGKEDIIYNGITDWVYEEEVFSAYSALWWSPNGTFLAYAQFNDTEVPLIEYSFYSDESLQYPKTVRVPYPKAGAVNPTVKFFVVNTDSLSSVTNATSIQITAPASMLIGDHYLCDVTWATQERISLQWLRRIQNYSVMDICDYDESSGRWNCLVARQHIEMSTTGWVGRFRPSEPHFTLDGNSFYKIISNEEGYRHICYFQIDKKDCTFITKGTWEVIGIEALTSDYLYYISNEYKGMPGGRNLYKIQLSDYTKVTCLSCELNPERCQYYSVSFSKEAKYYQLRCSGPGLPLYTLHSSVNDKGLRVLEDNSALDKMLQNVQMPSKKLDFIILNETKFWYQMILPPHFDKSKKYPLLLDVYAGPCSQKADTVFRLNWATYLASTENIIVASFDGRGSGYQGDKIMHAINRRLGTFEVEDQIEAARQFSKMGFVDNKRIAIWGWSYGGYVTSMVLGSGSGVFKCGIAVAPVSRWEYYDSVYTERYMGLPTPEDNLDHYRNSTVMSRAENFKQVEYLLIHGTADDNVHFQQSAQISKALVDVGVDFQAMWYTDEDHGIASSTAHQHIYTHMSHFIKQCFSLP
T2 sequence (P14740 37-767 limits assumed): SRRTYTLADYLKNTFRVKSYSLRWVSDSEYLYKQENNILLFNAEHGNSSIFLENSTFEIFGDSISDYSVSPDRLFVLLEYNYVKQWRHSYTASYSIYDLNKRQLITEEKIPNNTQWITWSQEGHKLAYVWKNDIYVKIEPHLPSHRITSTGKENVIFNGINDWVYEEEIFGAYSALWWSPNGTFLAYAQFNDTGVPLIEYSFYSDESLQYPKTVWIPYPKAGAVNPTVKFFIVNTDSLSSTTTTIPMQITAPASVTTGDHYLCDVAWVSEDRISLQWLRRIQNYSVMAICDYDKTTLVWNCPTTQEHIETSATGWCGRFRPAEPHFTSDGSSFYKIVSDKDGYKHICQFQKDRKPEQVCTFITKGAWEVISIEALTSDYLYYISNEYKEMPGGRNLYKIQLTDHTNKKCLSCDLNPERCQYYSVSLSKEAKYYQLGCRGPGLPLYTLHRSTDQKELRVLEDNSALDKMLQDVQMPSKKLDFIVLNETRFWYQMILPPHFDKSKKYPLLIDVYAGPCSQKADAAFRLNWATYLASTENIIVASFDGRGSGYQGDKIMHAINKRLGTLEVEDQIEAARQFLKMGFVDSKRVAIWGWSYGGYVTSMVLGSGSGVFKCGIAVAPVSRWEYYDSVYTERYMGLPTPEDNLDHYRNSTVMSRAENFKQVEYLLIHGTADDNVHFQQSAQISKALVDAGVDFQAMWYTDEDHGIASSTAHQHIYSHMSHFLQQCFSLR
T3 sequence (P27487 whole entry): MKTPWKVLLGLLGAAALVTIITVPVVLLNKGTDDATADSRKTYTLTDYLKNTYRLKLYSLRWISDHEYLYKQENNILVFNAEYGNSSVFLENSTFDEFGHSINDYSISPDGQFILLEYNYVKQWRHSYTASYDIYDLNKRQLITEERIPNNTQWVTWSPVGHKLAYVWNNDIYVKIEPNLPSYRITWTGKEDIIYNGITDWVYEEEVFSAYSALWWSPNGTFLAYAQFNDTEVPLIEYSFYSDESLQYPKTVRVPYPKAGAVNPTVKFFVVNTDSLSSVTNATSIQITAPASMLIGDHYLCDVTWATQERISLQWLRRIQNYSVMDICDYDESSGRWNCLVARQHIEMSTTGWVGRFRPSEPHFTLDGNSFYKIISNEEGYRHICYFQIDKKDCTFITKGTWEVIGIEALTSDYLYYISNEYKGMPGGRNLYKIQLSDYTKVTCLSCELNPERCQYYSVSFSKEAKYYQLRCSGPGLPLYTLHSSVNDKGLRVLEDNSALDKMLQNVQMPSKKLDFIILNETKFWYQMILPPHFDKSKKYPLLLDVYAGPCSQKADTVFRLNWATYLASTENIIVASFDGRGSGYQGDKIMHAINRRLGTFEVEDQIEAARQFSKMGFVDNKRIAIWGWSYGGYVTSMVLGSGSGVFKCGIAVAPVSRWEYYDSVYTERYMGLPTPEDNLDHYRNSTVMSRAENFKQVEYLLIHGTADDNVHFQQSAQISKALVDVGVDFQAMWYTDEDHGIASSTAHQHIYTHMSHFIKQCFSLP

N#C[C@@H]1CSCN1C(=O)CNC1CCCCC1 [Ex. 1, 3-[(cyclohexyl)amino]acetyl-4-cyano-(R)-thiazolidine monohydrochloride]
IC50 [1]: 10 nM | IC50 [2]: 10 nM | IC50 [3]: 7 nM

CC(C)OCCCNCC(=O)N1CSC[C@H]1C#N [Ex. 2, 3-[(3-isopropoxypropyl)amino]acetyl-4-cyano-(R)-thiazolidine monohydrochloride]
IC50 [1]: 5 nM | IC50 [2]: 1 nM | IC50 [3]: 7 nM

CC(C)NCC(=O)N1CSC[C@H]1C#N [Ex. 3, 3-[(isopropyl)amino]acetyl-4-cyano-(R)-thiazolidine monohydrochloride]
IC50 [1]: 3 nM | IC50 [2]: 3 nM | IC50 [3]: 6 nM
